From patent publication US20080057529A1, “Method for Identifying Histone Deacetylase Inhibitors” (priority 2003, published 2008)
pEC50: −log10 of the molar value. Where two headings read alike, the source gives them in different places. Blank lines part the entries; values can stand above or below the molecule they belong to.

Columns and labels:
Type in all cases: cell-based, human
endogenous p21 = experiment: Induction of endogenous p21 in HeLa cells, immunoblot; settings: 13 hour treatment, immunoblot densitometry, read-out: Endogenous p2 EC50
Method: (§1) Induction of endogenous p21 and acetylation of core histones (inhibition of HDAC activity) was as follows. Dose-response experiments were performed in HeLa cells with different classes of known HDAC inhibitors. […] An α-tubulin-specific antibody (Sigma, St. Louis, Mo.; catalog number: T9026) was used as an internal standard. Quantitative data were obtained by densitometric analysis of X-ray films and were normalized for the internal standard values.

p21 minimal promoter = experiment: Fluorometric β-lactamase activity assay in stable HeLa clone 1.17 (p21m-BLA); settings: read-out: p21m-Bla EC50
Method: All clones were screened for the presence of stably and functional integrated copies of the p21m-BLA reporter gene transcription cassette by performing a fluorometric β-lactamase activity assay after treatment with the HDAC inhibitor Apicidin at a concentration of 1 μM (saturating dose representing 100% of Bla gene activation, i.e., 100% of HDAC inhibition). A 100 μL aliquot of cells for each stable transformant in complete DMEM was plated into a well of a 96 well plate at about 36,000 cells per well for treatment with 1 μM Apicidin (saturating dose) and a 100 μL aliquot of cells was plated into a well of a 96 well plate at 24,000 cells per well for treatment with DMSO (vehicle control). […] After 4 hours, 25 μL of complete DMEM containing Apicidin at 5× final concentration or DMSO (5%) was added to each of the wells. The cells were then grown at 37° C., 5% CO2 for about 12 to 16 hours. Afterwards, the medium was removed and 100 μL of DMEM without serum and 25 μL of FRET labeled CCF2-AM Bla substrate diluted in the appropriate buffer according to the manufacturer recommendations were each added to the cells to give a final concentration of 1 μM CCF2-AM.

[1] = test system: HDAC activity (acetylated histone H3); experiment: Acetylation of core histones (inhibition of HDAC activity) in HeLa cells, acetylated histone H3 immunoblot; settings: Homo sapiens; HeLa cells, 13 hour treatment, immunoblot densitometry; read-out: AcH3 EC50
Method: as §1

pEC50 (endogenous p21): 4.66
pEC50 (p21 minimal promoter; clone 1.17, about 13 hours treatment, means of 3 to 4 independent experiments): 4.92
SMILES: Nc1ccccc1NC(=O)c1ccc(CNC(=O)OCc2cccnc2)cc1 [MS27-275]

SMILES: CCCC(=O)[O-].[Na+] [Na-butyrate, sodium butyrate]
pEC50 (p21 minimal promoter; Homo sapiens, HeLa, 13 h): 2.70

pEC50 [1]: 6.10
SMILES: O=C(CCCCCCC(=O)Nc1ccccc1)NO [SAHA, suberoylanilide hydroxamic acid]
